In article PMC5493638, “Adiponectin is an endogenous anti-fibrotic mediator and therapeutic target” (Scientific Reports, 2017):
Residues, ends and D or L forms follow the SMILES beside them.

Assays:
[1] = test system: AMP-activated protein kinase (AMPK); details: cited from earlier work
From the text: (§1) An alternate potential strategy is to mimic adiponectin biological activity using small molecules.

[2] = test system: normal dermal fibroblasts; assay: Scratch assay of fibroblast migration; assay type: cell-based, human; details: widths after 48 h
Description: Figure 4 ADP355 inhibits fibrotic responses in normal and SSc skin fibroblasts. (a–d). Confluent cultures of normal dermal fibroblasts were preincubated with ADP355, followed by TGF-β2 for 24 h. (a) Total RNA was subjected to real-time qPCR. Results are mean ± SD of triplicate determinations. *p < 0.05, **p < 0.01. (b) Western blot of whole cell lysates. Representative results. Fold change in Type I collagen (Cgn I) levels relative to control is shown at bottom. (c) Fibroblasts were transiently transfected with [SBE]4-luc reporter plasmids, and cell lysates were assayed for their luciferase activities. Results are mean ± SD of triplicate determinations. **p < 0.001 (d) Scratch assays were performed and the widths determined after 48 h. Results are mean ± SEM of triplicate determinations at three randomly selected sites. (e) 3D human skin equivalents populated with normal fibroblasts were incubated in media with ADP355 and TGF-β2 for 6 days. RNA was isolated for qPCR. Results are mean ± SD of triplicate determinations *p < 0.05, **p < 0.001. (f) SSc skin fibroblasts (n = 5) incubated with ADP355 for 24 h were immunostained with antibodies to αSMA (green) or type I collagen (Cgn1, red), or stained with DAPI (blue). Left panels, representative immunofluorescence photomicrographs (original magnification × 400). Right panels, immunofluorescence intensity. […]

[3] = test system: AMPK-null MEFs; assay: Anti-fibrotic activity in AMPK-null MEFs (qPCR); assay type: cell-based; details: mouse embryonic fibroblasts, ADP355 24 h
From the text: (§2) Primary cultures of healthy adult and SSc skin fibroblasts, and neonatal fibroblasts, were established by explantation. The clinical features of the subjects are shown in Supplementary Table 5. Protocols for skin biopsies were approved by the Institutional Review Board at Northwestern University. Embryonic fibroblasts from AMP protein kinase (AMPK)^−/− mice and wild-type mice were a gift from Yu-Ying He (University of Chicago). When cultures reached confluence, serum-free media supplemented with 0.1% bovine serum albumin (BSA) were added prior to TGF-β2 (Peprotech, Rocky Hill, NJ) or/and ADP355 (10 μM)[37], and incubation continued for a further 24 h. Cytotoxicity was evaluated using LDH assays (Biovision).
(§3) RNA was isolated from skin samples using RNAeasy Fibrous Tissue Mini kit (Qiagen, Valencia, CA), or from fibroblast cultures, using the RNeasy Plus mini kit (Qiagen), and processed for qPCR as described. mRNA levels were normalized to the levels of 18 S RNA or GAPDH, and the relative amounts were calculated using the 2^−ΔΔCt method.

[4] = test system: [SBE]4-luc (canonical Smad pathway); assay: [SBE]4-luc transient transfection reporter assay; assay type: cell-based, human; details: transiently transfected fibroblasts, ADP355 and TGF-β 24 h, luciferase
Description: Fibroblasts at early confluence were transfected with [SBE]4-luc plasmids or indicated reporter constructs using SuperFect Transfection (Qiagen)[61]. Cultures were incubated in serum-free media containing 0.1% BSA for 16 h, followed by ADP355 and TGF-β for a further 24 h[61]. Whole cell lysates were assayed for luciferase activities using the dual-luciferase reporter assay system (Promega, Madison, WI). In each experiment, Renilla luciferase pRL-TK (Promega) was cotransfected as control for transfection efficiency. Experiments were performed in triplicate and repeated at least twice with consistent results. For RNAi-mediated transcript silencing, fibroblasts were transfected with target-specific short interfering siRNA specific for AdipoR1/R2 (Dharmacon, Lafayette, CO) or scrambled control siRNA (10 nM, unless otherwise indicated). Twenty-four hours following transfection, fresh media containing TGF-β (2 ng/ml) or ADP355 (10 μM) were added to the cultures and incubation continued for a further 24 h.

[5] = test system: p-FAK Y397; assay: FAK phosphorylation and focal adhesion complex assembly; assay type: cell-based, human; details: normal skin fibroblasts, pretreatment with ADP355
Description: (§4) Normal skin fibroblasts (10,000 cells/well) seeded in 8-well Lab-Tek II chamber glass slides (Nalge Nunc International, Naperville, IL) were incubated in media with indicated reagents. At the end of the experiments, cells were fixed, permeabilized, and incubated with primary antibodies to α-SMA (1:500, Sigma), phospho-FAK (pY397; 1:50, Abcam), vinculin (1:200, Abcam), Alexa Fluor 488 phalloidin (1:200, Invitrogen) or Type I collagen (1:100, Southern Biotech), followed by appropriate secondary antibodies conjugated to Alexa Fluor (Invitrogen), and evaluated under a Nikon C1Si confocal microscope.
(§5) At the end of the experiments, fibroblasts were harvested and whole cell lysates (100 μg) were subjected to Western-blot analysis[25] using antibodies for Type I collagen (Southern Biotech), α-SMA (Sigma), phospho-Smad2/3 (Cell-Signaling), phospho-FAK (pY397, Cell Signaling), total-FAK (Cell Signaling) or GAPDH (Zymed, San Francisco, CA). Electrophoretic bands were detected using enhanced chemiluminescence reagents (Pierce Biotechnology, Rockford, IL), and band intensities were quantified with Image J software. Results were normalized with GAPDH levels in each sample.

[6] = test system: skin fibroblasts; assay: In vitro competition binding with labeled peptides; set-up: species or system human; details: unlabeled ADP355 100 μg/ml 10 min, then ADP355-Dy675 5 μg/ml 30 min, confocal microscopy
Description: To evaluate in vitro peptide binding, skin fibroblasts seeded on coverslips were preincubated with unlabeled ADP355 (100 μg/ml) for 10 min, followed by labeled ADP355-Dy675 (5 μg/ml), or labeled control peptide (Api88 Dy675, gift from Daniel Knappe, Leipzig, Germany) for 30 min. Cells were fixed in 4% phosphate buffered paraformaldehyde (PFA) and visualized using a Nikon A1 confocal microscope. To evaluate in vivo biodistribution, C57BL6/J mice were injected i.p. with Dy675-coupled peptide (20 μg/mouse or […]) and 10 min later, dorsal skin was harvested and processed for immunofluorescence analysis.

[7] = test system: normal dermal fibroblasts; assay: TGF-ß-induced fibrotic gene expression in skin fibroblasts (qPCR, Western blot); assay type: cell-based, human
From the text: as §2, §3
At the end of the experiments, fibroblasts were harvested and whole cell lysates (100 μg) were subjected to Western-blot analysis[25] using antibodies for Type I collagen (Southern Biotech), α-SMA (Sigma), phospho-Smad2/3 (Cell-Signaling), phospho-FAK (pY397, Cell Signaling), total-FAK (Cell Signaling) or GAPDH (Zymed, San Francisco, CA). […]

[8] = test system: 3D human skin equivalents populated with normal skin fibroblasts; assay: 3D human skin equivalents, fibrotic responses (qPCR); assay type: cell-based; details: peptide 10 uM with TGF-β2 for 6 days
Description: Normal human skin fibroblasts (3 × 10^5cells) were mixed with rat tail Type I collagen (4 mg/ml, BD Biosciences, San Jose, CA) and seeded in 12-well plates, [60]. Epidermal keratinocytes (6 × 10^6 cells) were seeded on the collagen plugs. Forty-eight hours later, the 3D organotypic cultures were placed on metal grids (BD Biosciences) and maintained for 5 days at an air-medium interface. Peptides (10 uM) were then added in media with or without TGF-β, and incubations continued for a further six days. Experiments were harvested, and RNA was isolated for analysis.
as §3

[9] = test system: AdipoR-positive cancer cell lines; details: cited from earlier work
From the text: as §1

[10] = cited from earlier work
From the text: as §1

[11] = test system: AdipoR; details: screening of 66 overlapping 10-amino acid peptides of the globular domain of adiponectin; cited from earlier work
From the text: as §1

[12] = test system: SSc skin fibroblasts; assay: Constitutive fibrotic gene expression in SSc fibroblasts; assay type: cell-based, human; details: unstimulated SSc fibroblasts (n = 5), ADP355 24 h, αSMA and type I collagen immunofluorescence
Description: as §4, §2

[13] = test system: C57BL6/J mice; assay: Bleomycin-induced skin fibrosis in mice; assay type: in vivo, mouse
From the text: (§6) Bleomycin (BLM) or phosphate buffered saline (PBS) was given by daily subcutaneous (s.c.) injection for 14 consecutive days[55]. In some experiments, mice were given a single s.c. injection of adenovirus expressing constitutively-active TGF-ß1 (TGFß1^223/225 3x10^9 PFU/ml) or beta-galactosidase (5x10^9 PFU/ml)[56]. Peritoneal fibrosis was induced by i.p. injections of 0.1% chlorhexidine gluconate (CG; Wako Pure Chemical Industries, Osaka, Japan) dissolved in 15% ethanol/PBS given on alternate days for 21 days[35]. Synthetic peptides targeting AdipoR (ADP355 or ADP27)[37] or vehicle (PBS) at the indicated concentrations were administered by daily i.p. injection for 14 or 24 days. Each experimental group consisted of 4–8 mice, and experiments were repeated at least two times with consistent results. At the end of the experiments, mice were sacrificed and blood and tissue were collected for analysis.
Harvested skin or parietal peritoneal membrane samples were fixed in PFA, embedded in paraffin and 4 μm thick sections were stained with hematoxylin and eosin (H&E). Collagen deposition and organization were assessed using Masson’s Trichrome staining. Thickness of the dermis, dWAT or peritoneal membrane were determined at five randomly selected locations/slide using ImageJ software.
Collagen content of lesional skin was determined by measuring the hydroxyproline content in 6-mm punch biopsy samples (BioVision, Milpitas, CA) (16). Serum levels of adiponectin were determined by ELISA which measures all adiponectin isoforms (Millipore; #EZMADP-60K)[9].
as §3

[14] = test system: skin fibroblasts; assay: Cytotoxicity, LDH assay; assay type: cell-based, human; details: concentrations of ADP355 used for these experiments (10 μM)
From the text: as §2

[15] = Ex vivo stability in serum; assay type: in vitro ADME; details: 30 min incubation with serum, intact peptide, data not shown
[16] = Tolerability of chronic treatment in mice; assay type: in vivo, mouse; details: 1 mg/kg/d i.p. for up to 28 days
From the text: as §6

[17] = test system: phospho-AMP kinase (Thr172); assay: AMPK phosphorylation in normal fibroblasts (immunofluorescence); assay type: cell-based, human; details: ADP355 60 min, confocal immunofluorescence
[18] = test system: phospho-Smad2/3; assay: Smad2/3 phosphorylation elicited by TGF-ß (Western); assay type: cell-based, human; details: fibroblasts treated with ADP355
Description: as §5

[19] = daily i.p. ADP355 initiated concurrently with BLM

Molecule: NC(=O)c1ncn([C@@H]2O[C@H](CO)[C@@H](O)[C@H]2O)c1N [AICAR]
- effect on or relative to the anti-fibrotic activities of adiponectin [1]: mimicked

Molecule: c1cc(-c2cnn3cc(-c4ccc(OCCN5CCCCC5)cc4)cnc23)ccn1 [Compound C]
- effect on or relative to the anti-fibrotic activities of adiponectin [1]: blocked

Molecule: CCC[C@H](NC(=O)[C@@H]1CCCN1C(=O)[C@@H](NC(=O)[C@H](N)CC(N)=O)[C@@H](C)CC)C(=O)N[C@@H](CC(C)C)C(=O)N[C@@H](Cc1ccc(O)cc1)C(=O)N[C@H](CO)C(=O)N[C@@H](Cc1ccccc1)C(=O)N[C@@H](C)C(=O)N[C@H](CO)C(N)=O [ADP355, H-DAsn-Ile-Pro-Nva-Leu-Tyr-DSer-Phe-Ala-DSer-NH2] (HELM PEPTIDE1{[dN].I.P.[Nva].L.Y.[dS].F.A.[dS].[am]}$$$$V2.0)
- stimulation of fibroblast migration [2]: abrogated the stimulation of fibroblast migration
- anti-fibrotic activity in AMPK-null MEFs [3]: failed to exert anti-fibrotic activity
- stimulation of [SBE]4-luc activity by TGF-ß [4]: abrogated
- FAK activation and focal adhesion complex assembly augmented by TGF-ß [5]: substantially attenuated
- binding to fibroblasts [6]: Specific binding
- inhibitory effects on fibrotic gene expression ([7]; adult skin fibroblasts, data not shown): Comparable inhibitory effects
- COL1A1, COL1A2, ASMA, and fibronectin (FN) gene expression induced by TGF-ß ([7]; neonatal skin fibroblasts, ADP355 10 μM preincubation then TGF-β2 24 h, qPCR and Western blot): potent abrogation
- fibrotic responses in 3D human skin equivalents [8]: attenuated fibrotic responses
- anti-tumor effects [9]: anti-tumor effects
- hypoadiponectinemia and loss of subcutaneous adipose tissue induced by HIV protease inhibitors [10]: reverse
- AdipoR agonist activity [11]: potent AdipoR agonist
- constitutive fibrotic gene expression [12]: mitigated constitutive fibrotic gene expression
- skin fibrosis, low dose ([13]; 0.2 mg/kg/d, multiple independent experiments): Significant attenuation
- skin fibrosis, high dose ([13]; 1 mg/kg/d, multiple independent experiments): Significant attenuation
- dermal thickness, peptide by itself ([13]; ADP355 alone, without BLM): no significant effect
- BLM-induced collagen accumulation [13, 19]: significantly mitigated
- BLM-induced dWAT attrition [13, 19]: significantly mitigated
- BLM-induced increase in dermal thickness ([13]; daily i.p. ADP355 initiated concurrently with BLM (s.c. 14 d), continued for 21 d): significantly mitigated
- BLM-induced fibrotic gene expression ([13]; daily i.p. ADP355 initiated concurrently with BLM, qPCR of lesional skin): significantly mitigated
- established dermal fibrosis ([13]; treatment initiated at day 10 of BLM, data not shown): reversed established dermal fibrosis
- cell viability [14]: No effects on cell viability
- ex vivo stability in serum [15]: excellent ex vivo stability, with detectable levels of intact peptide even after 30 min incubation with serum
- tolerability of chronic treatment [16]: well tolerated, with no signs of toxicity
- AMPK phosphorylation [17]: induced AMPK phosphorylation
- Smad2/3 phosphorylation elicited by TGF-ß [18]: partially reduced

Molecule: H-LYYFAYHITV-NH2 [ADP27, H-Leu-Tyr-Tyr-Phe-Ala-Tyr-His-Ile-Thr-Val-NH2]
- anti-fibrotic effects in mice compared with ADP355 ([13]; mice treated with ADP27, Supplementary Fig. 9a,b): Comparable anti-fibrotic effects

B1: adiponectin: 30 kDa secreted adipokine abundant in the circulation (protein, UniProt Q15848 19-244, looked up)
Adiponectin: ETTTQGPGVLLPLPKGACTGWMAGIPGHPGHNGAPGRDGRDGTPGEKGEKGDPGLIGPKGDIGETGVPGAEGPRGFPGIQGRKGEPGEGAYVYRSAFSVGLETYVTIPNMPIRFTKIFYNQQNHYDGSTGKFHCNIPGLYYFAYHITVYMKDVKVSLFKKDKAMLFTYDQYQENNVDQASGSVLLHLEVGDQVWLQVYGEGERNGLYADNDNDSTFTGFLLYHDTN
- half-life [10]: relatively short half-life
- solubility [10]: extreme insolubility
